Each structure is given as a SMILES string.

One assay has as its system HCV replicon. Put plainly: Cell-Based HCV Replicon Assay. The note with it: Hepatitis C virus, 72 h; Table V, class codes; replicon cells, day 3, real time PCR; EC90 = concentration for ΔCT=3.2 over baseline; read-out: EC90 (uM) range. Here is the method: Cell-Based HCV Replicon Assay
To measure cell-based anti-HCV activity of the compounds of the present invention, replicon cells were seeded at 5000 cells/well in 96-well collagen I-coated Nunc plates in the presence of the compound of the invention. Various concentrations of a compound of the invention, typically in 10 serial 2-fold dilutions, were added to the assay mixture, the starting concentration of the compound ranging from 25 μM to 1 μM. The final concentration of DMSO was 0.5%, fetal bovine serum was 10%, in the assay media. Cells were harvested on day 3 by the addition of 1× cell lysis buffer (Ambion cat #8721). The replicon RNA level was measured using real time PCR (Taqman assay). The amplicon was located in 5B. The PCR primers were: 5B.2F, ATGGACAGGCGCCCTGA; 5B.2R, […]; the probe sequence was FAM-labeled CACGCCATGCGCTGCGG. GAPDH RNA was used as endogenous control and was amplified in the same reaction as NS5B (multiplex PCR) using primers and VIC-labeled probe recommended by the manufacturer (PE Applied Biosystem). The real-time RT-PCR reactions were run on ABI PRISM® 7900HT Sequence Detection System using the following program: 48′C for 30 min, 95′C for 10 min, 40 cycles of 95′C for 15 sec, 60′C for 1 min. The ΔCT values (CT5B-CTGAPDH) were plotted against the concentration of test compound and fitted to the sigmoid dose-response model using Graph Pad PRISM® software. EC50 was defined as the concentration of inhibitor necessary to achieve ΔCT=1 over the projected baseline; EC90 the concentration necessary to achieve ΔCT=3.2 over the baseline. Alternatively, to quantitate the absolute amount of replicon RNA, a standard curve was established by including serially diluted T7 transcripts of replicon RNA in the Taqman assay. All Taqman reagents were from PE Applied Biosystems. Such an assay procedure was described in detail in e.g. Malcolm et al., Antimicrobial Agents and Chemotherapy 50: 1013-1020 (2006).
HCV Replicon assay data for compounds of the invention that were tested were obtained using the above method.
A general note: In antiviral work, replicon cells carry a viral genome segment that copies itself.
As for `Cc1nc(NCC2CC2)nc(N[C@@H]2C[C@H](CO)[C@@H](O)[C@H]2O)c1-c1nc2cnc(C3CC3)cc2s1` [Example 4942], the EC90 – broadly, the concentration needed for an effect of 90% – was less than 0.5 µM.

Consider `COCCNc1nc(C)c(-c2nc3cnc(C4CC4)cc3s2)c(N[C@@H]2C[C@H](CO)[C@@H](O)[C@H]2O)n1` [Example 4943], for which the EC90 was less than 0.5 µM.

Consider `Cc1nc(N[C@H](C)c2ccc(OC(F)(F)F)cc2)nc(N[C@@H]2C[C@H](CO)[C@@H](O)[C@H]2O)c1-c1nc2cnc(C3CC3)cc2s1` [Example 4944], for which the EC90 was less than 0.5 µM.

Consider `Cc1nc(N)nc(N[C@@H]2C[C@H](CO)[C@@H](O)[C@H]2O)c1-c1nc2cnc(C3CC3)cc2s1` [Example 4945], for which the EC90 is less than 0.5 µM.

In the case of `COCCNc1nc(C)c(-c2nc3cnc(C)cc3s2)c(N[C@@H]2C[C@H](CO)[C@@H](O)[C@H]2O)n1` [Example 4946], the EC90 is less than 0.5 µM.

As for `Cc1nc(N[C@H](C)c2ccc(OC(F)(F)F)cc2)nc(N[C@@H]2C[C@H](C(=O)NC(C)(C)C)[C@@H](O)[C@H]2O)c1-c1nc2c(C3CC3)nccc2s1` [Example 4947], the EC90 is less than 0.5 µM.

As to `Cc1nc(N)nc(N[C@@H]2C[C@H](C(=O)Nc3ccccc3)[C@@H](O)[C@H]2O)c1-c1nc2c(C3CC3)nccc2s1` [Example 4948], the EC90 was less than 0.5 µM.

Turning to `COCCNc1nc(C)c(-c2nc3c(C4CC4)nccc3s2)c(N[C@@H]2C[C@H](C(=O)Nc3ccccc3)[C@@H](O)[C@H]2O)n1` [Example 4949], the EC90 was less than 0.5 µM.

Take `Cc1nc(NCC2CC2)nc(N[C@@H]2C[C@H](C(=O)Nc3ccccc3)[C@@H](O)[C@H]2O)c1-c1nc2c(C3CC3)nccc2s1` [Example 4950]: the EC90 was less than 0.5 µM.

Regarding `Cc1nc(N[C@H](C)c2ccc(OC(F)(F)F)cc2)nc(N[C@@H]2C[C@H](C(=O)Nc3ccccc3)[C@@H](O)[C@H]2O)c1-c1nc2c(C3CC3)nccc2s1` [Example 4951], the EC90 was in the range of 0.5 to 5 µM.

As to `Cc1cc2sc(-c3c(C)nc(N[C@H](C)C4CC4)nc3N[C@@H]3C[C@H](CO)[C@@H](O)[C@H]3O)nc2cn1` [Example 4952], the EC90 is less than 0.5 µM.

Turning to `CO[C@H](C)CNc1nc(C)c(-c2nc3cnc(C)cc3s2)c(N[C@@H]2C[C@H](CO)[C@@H](O)[C@H]2O)n1` [Example 4953], the EC90 is less than 0.5 µM.

Take `COCCNc1nc(C)c(-c2nc3c(C)nccc3s2)c(N[C@@H]2C[C@H](C(C)(C)F)[C@@H](O)[C@H]2O)n1` [Example 4954]: the EC90 was less than 0.5 µM.

For `Cc1nc(N[C@H](C)c2ccc(OC(F)(F)F)cc2)nc(N[C@@H]2C[C@H](C(=O)Nc3ccncc3)[C@@H](O)[C@H]2O)c1-c1nc2c(C3CC3)nccc2s1` [Example 4955], the EC90 is less than 0.5 µM.

Turning to `COCCNc1nc(C)c(-c2nc3c(C4CC4)nccc3s2)c(N[C@@H]2C[C@H](C(=O)Nc3ccncc3)[C@@H](O)[C@H]2O)n1` [Example 4956], the EC90 was less than 0.5 µM.

As for `Cc1nc(NCC2CC2)nc(N[C@@H]2C[C@H](C(=O)Nc3ccncc3)[C@@H](O)[C@H]2O)c1-c1nc2c(C3CC3)nccc2s1` [Example 4957], the EC90 is less than 0.5 µM.

Staying with this assay, now noted: Hepatitis C virus; HCV Replicon assay, EC90 range, Table VI; read-out: EC90.
For `Cc1ccc(S(=O)(=O)C[C@H]2C[C@@H](Nc3nc(NCCSC(C)(C)C)nc(C)c3-c3nc4c(C)nccc4s3)[C@H](O)[C@@H]2O)cc1F` [Example 5001], the EC90 is less than 0.5 µM.

For the molecule `Cc1cc(S(=O)(=O)C[C@H]2C[C@@H](Nc3nc(NC4CC4)nc(C)c3-c3nc4c(C)nccc4s3)[C@H](O)[C@@H]2O)ccc1F` [Example 5002], the EC90 is less than 0.5 µM.

Regarding `Cc1ccc(S(=O)(=O)C[C@H]2C[C@@H](Nc3nc(NC4CC4)nc(C)c3-c3nc4c(C)nccc4s3)[C@H](O)[C@@H]2O)cc1F` [Example 5003], the EC90 was less than 0.5 µM.

With `Cc1nc(NC2CC2)nc(N[C@@H]2C[C@H](CS(=O)(=O)c3ccc(F)c(F)c3)[C@@H](O)[C@H]2O)c1-c1nc2c(C)nccc2s1` [Example 5004], the EC90 is less than 0.5 µM.

Take `COc1ccc(S(=O)(=O)C[C@H]2C[C@@H](Nc3nc(NC4CC4)nc(C)c3-c3nc4c(C)nccc4s3)[C@H](O)[C@@H]2O)cc1F` [Example 5005]: the EC90 was less than 0.5 µM.

Source of the values: patent publication US9433621B2, “Substituted pyridine and pyrimidine derivatives and their use in treating viral infections” (Merck Sharp & Dohme Corp., priority 2010, dated 2016).
